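In this assay, cells in 96-well plates receive the compound at five concentrations for 48 hours. Endpoints are linearly interpolated between the surrounding concentrations. GI50: concentration for 50% inhibition of growth. TGI denotes the concentration required for complete inhibition of growth.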
Tests used:
Test in all cases: NCI anticancer screen, dose series, 48 h
BT-549 breast = test system: BT-549 breast
OVCAR-5 ovarian = test system: OVCAR-5 ovarian
HL-60(TB) leukemia = test system: HL-60(TB) leukemia
RPMI-8226 leukemia = test system: RPMI-8226 leukemia
786-0 renal = test system: 786-0 renal
HCT-15 colon = test system: HCT-15 colon
UACC-257 melanoma = test system: UACC-257 melanoma
SK-MEL-2 melanoma = test system: SK-MEL-2 melanoma
MOLT-4 leukemia = test system: MOLT-4 leukemia
CAKI-1 renal = test system: CAKI-1 renal
NCI-H460 lung = test system: NCI-H460 lung
MCF7 breast = test system: MCF7 breast
LOX IMVI melanoma = test system: LOX IMVI melanoma
HCC-2998 colon = test system: HCC-2998 colon
EKVX NSCLC = test system: EKVX NSCLC
NCI-H522 lung = test system: NCI-H522 lung
M14 melanoma = test system: M14 melanoma
HT29 colon = test system: HT29 colon
TK-10 renal = test system: TK-10 renal
IGROV1 ovarian = test system: IGROV1 ovarian
A498 renal = test system: A498 renal
MDA-MB-231 breast = test system: MDA-MB-231 breast
UACC-62 melanoma = test system: UACC-62 melanoma
SK-MEL-5 melanoma = test system: SK-MEL-5 melanoma
OVCAR-3 ovarian = test system: OVCAR-3 ovarian
HS 578T breast = test system: HS 578T breast
NCI/ADR-RES ovarian = test system: NCI/ADR-RES ovarian
SF-539 CNS = test system: SF-539 CNS
U251 CNS = test system: U251 CNS
OVCAR-8 ovarian = test system: OVCAR-8 ovarian
ACHN renal = test system: ACHN renal
SNB-19 CNS = test system: SNB-19 CNS
SF-295 CNS = test system: SF-295 CNS
KM12 colon = test system: KM12 colon
PC-3 prostate = test system: PC-3 prostate
RXF 393 renal = test system: RXF 393 renal
SK-OV-3 ovarian = test system: SK-OV-3 ovarian
OVCAR-4 ovarian = test system: OVCAR-4 ovarian
MALME-3M melanoma = test system: MALME-3M melanoma
T-47D breast = test system: T-47D breast
UO-31 renal = test system: UO-31 renal
SR leukemia = test system: SR leukemia
DU-145 prostate = test system: DU-145 prostate
HOP-62 NSCLC = test system: HOP-62 NSCLC
HOP-92 NSCLC = test system: HOP-92 NSCLC
MDA-MB-435 = test system: MDA-MB-435
SK-MEL-28 melanoma = test system: SK-MEL-28 melanoma
A549 NSCLC = test system: A549 NSCLC
K-562 leukemia = test system: K-562 leukemia
SN12C renal = test system: SN12C renal
CCRF-CEM leukemia = test system: CCRF-CEM leukemia
HCT-116 colon = test system: HCT-116 colon

COc1ccc(-c2nc3cc(Cl)c(Cl)cc3n2CC(=O)N=Nc2c(O)[nH]c3ccc(Cl)cc23)cc1
GI50 (BT-549 breast): 2510 nM
TGI (BT-549 breast): 6440 nM
GI50 (OVCAR-5 ovarian): 1910 nM
TGI (OVCAR-5 ovarian): 3780 nM
GI50 (HL-60(TB) leukemia): 4870 nM
TGI (HL-60(TB) leukemia): > 100000 nM
GI50 (RPMI-8226 leukemia): 2310 nM
TGI (RPMI-8226 leukemia): 6540 nM
GI50 (786-0 renal): 1800 nM
TGI (786-0 renal): 3280 nM
GI50 (HCT-15 colon): 1920 nM
TGI (HCT-15 colon): 3880 nM
GI50 (UACC-257 melanoma): 1640 nM
TGI (UACC-257 melanoma): 3290 nM
GI50 (SK-MEL-2 melanoma): 1850 nM
TGI (SK-MEL-2 melanoma): 3620 nM
GI50 (MOLT-4 leukemia): 4440 nM
TGI (MOLT-4 leukemia): > 100000 nM
GI50 (CAKI-1 renal): 1500 nM
TGI (CAKI-1 renal): 2850 nM
GI50 (NCI-H460 lung): 1860 nM
TGI (NCI-H460 lung): 3510 nM
GI50 (MCF7 breast): 1830 nM
TGI (MCF7 breast): 3620 nM
GI50 (LOX IMVI melanoma): 1780 nM
TGI (LOX IMVI melanoma): 3330 nM
GI50 (HCC-2998 colon): 1920 nM
TGI (HCC-2998 colon): 3560 nM
GI50 (EKVX NSCLC): 2120 nM
TGI (EKVX NSCLC): 4940 nM
GI50 (NCI-H522 lung): 1730 nM
TGI (NCI-H522 lung): 3720 nM
GI50 (M14 melanoma): 1810 nM
TGI (M14 melanoma): 3500 nM
GI50 (HT29 colon): 1830 nM
TGI (HT29 colon): 3500 nM
GI50 (TK-10 renal): 2860 nM
TGI (TK-10 renal): 7070 nM
GI50 (IGROV1 ovarian): 1740 nM
TGI (IGROV1 ovarian): 3460 nM
GI50 (A498 renal): 1910 nM
TGI (A498 renal): 3550 nM
GI50 (MDA-MB-231 breast): 1850 nM
TGI (MDA-MB-231 breast): 3970 nM
GI50 (UACC-62 melanoma): 1700 nM
TGI (UACC-62 melanoma): 3390 nM
GI50 (SK-MEL-5 melanoma): 2000 nM
TGI (SK-MEL-5 melanoma): 4040 nM
GI50 (OVCAR-3 ovarian): 1730 nM
TGI (OVCAR-3 ovarian): 3200 nM
GI50 (HS 578T breast): 2120 nM
TGI (HS 578T breast): 5530 nM
GI50 (NCI/ADR-RES ovarian): 1840 nM
TGI (NCI/ADR-RES ovarian): 3790 nM
GI50 (SF-539 CNS): 1710 nM
TGI (SF-539 CNS): 3180 nM
GI50 (U251 CNS): 1690 nM
TGI (U251 CNS): 3140 nM
GI50 (OVCAR-8 ovarian): 1760 nM
TGI (OVCAR-8 ovarian): 3290 nM
GI50 (ACHN renal): 1780 nM
TGI (ACHN renal): 3200 nM
GI50 (SNB-19 CNS): 2000 nM
TGI (SNB-19 CNS): 4210 nM
GI50 (SF-295 CNS): 1940 nM
TGI (SF-295 CNS): 3600 nM
GI50 (KM12 colon): 2150 nM
TGI (KM12 colon): 5180 nM
GI50 (PC-3 prostate): 1680 nM
TGI (PC-3 prostate): 3340 nM
GI50 (RXF 393 renal): 1720 nM
TGI (RXF 393 renal): 3170 nM
GI50 (SK-OV-3 ovarian): 1640 nM
TGI (SK-OV-3 ovarian): 3240 nM
GI50 (OVCAR-4 ovarian): 1740 nM
TGI (OVCAR-4 ovarian): 3370 nM
GI50 (MALME-3M melanoma): 1760 nM
TGI (MALME-3M melanoma): 3370 nM
GI50 (T-47D breast): 1710 nM
TGI (T-47D breast): 3560 nM
GI50 (UO-31 renal): 1260 nM
TGI (UO-31 renal): 2530 nM
GI50 (SR leukemia): 3030 nM
TGI (SR leukemia): > 100000 nM
GI50 (DU-145 prostate): 1860 nM
TGI (DU-145 prostate): 3500 nM
GI50 (HOP-62 NSCLC): 1610 nM
TGI (HOP-62 NSCLC): 3160 nM
GI50 (HOP-92 NSCLC): 1160 nM
TGI (HOP-92 NSCLC): 2770 nM
GI50 (MDA-MB-435): 1740 nM
TGI (MDA-MB-435): 3400 nM
GI50 (SK-MEL-28 melanoma): 1780 nM
TGI (SK-MEL-28 melanoma): 3250 nM
GI50 (A549 NSCLC): 1760 nM
TGI (A549 NSCLC): 3530 nM
GI50 (K-562 leukemia): 2430 nM
TGI (K-562 leukemia): 6220 nM
GI50 (SN12C renal): 1950 nM
TGI (SN12C renal): 3760 nM
GI50 (CCRF-CEM leukemia): 3930 nM
TGI (CCRF-CEM leukemia): > 100000 nM
GI50 (HCT-116 colon): 1830 nM
TGI (HCT-116 colon): 3350 nM

Reference: PubChem BioAssay (NCI)
